Reference: US8741359B2, “Method for testing a substance which is potentially active in the field of lipolysis and its mainly cosmetic use” (BASF Beauty Care Solutions France S.A.S., priority 2001, dated 2014)

Assays:
[1] = target: T1, lipoprotein lipase (Bos taurus, UniProt P11151); experiment: Inhibition of lipoprotein lipase, acellular in vitro model, NEFA determination with NEFA-C kit (colorimetry 550 nm); format: biochemical, bovine; settings: for Inhibition (%) Pure product diluted to a 1/100th / Inhibition (%) Pure product diluted to a 1/10,000th / Inhibition (%) Pure product: reference inhibitors; for Inhibition (%) Pure product: pure product at initial concentration (protamine sulphate 0.4%, protamine 2.4%, sodium pyrophosphate 6%)
T1 construct: The LPL used in the study model retained does in fact originate from bovine milk; from tissue; host or cells: bovine milk
T1 sequence (P11151 29-478): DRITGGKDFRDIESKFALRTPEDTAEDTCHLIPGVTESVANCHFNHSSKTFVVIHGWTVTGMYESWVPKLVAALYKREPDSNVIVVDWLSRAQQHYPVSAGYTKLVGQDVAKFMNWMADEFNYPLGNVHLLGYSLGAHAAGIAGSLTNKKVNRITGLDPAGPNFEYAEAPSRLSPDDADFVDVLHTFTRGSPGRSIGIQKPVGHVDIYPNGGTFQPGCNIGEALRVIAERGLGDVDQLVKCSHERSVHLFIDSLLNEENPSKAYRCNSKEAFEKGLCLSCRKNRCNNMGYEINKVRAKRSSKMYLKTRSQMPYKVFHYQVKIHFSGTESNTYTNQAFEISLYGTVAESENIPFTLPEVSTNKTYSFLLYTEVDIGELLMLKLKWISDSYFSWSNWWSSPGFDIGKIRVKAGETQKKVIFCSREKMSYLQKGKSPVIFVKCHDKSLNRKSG
Experimental: The study of the inhibition of the lipoprotein lipase is carried out in an acellular in vitro model which is desired to be a most ? intelligent ? reflection possible of the situation encountered in vivo.
Upon completion of this incubation, a determination of the non-esterified fatty acids (NEFA) is effected upon the reaction medium by an enzymatic technique which is possible to be followed by colorimetry at 550 nm (NEFA-C kit).
A control corresponding to the LPL activity in the absence of inhibitor is effected. […] The results are expressed in percentage inhibition with respect to the control.

[2] = target: T1, lipoprotein lipase; experiment: Inhibition of lipoprotein lipase, released oleic acid determined by gas phase chromatography (GPC); format: biochemical, bovine; settings: for Inhibition Pure product diluted to a 1/100th: diluted 1/100th; for Inhibition Pure product diluted to a 1/10,000th: diluted 1/10,000th; for Inhibition Pure product: pure product at initial concentration (sodium pyrophosphate 6%, protamine sulphate 0.4%)
Experimental: LPL is an enzyme which has a significant affinity for its reaction product. The fatty acids released will in fact aggregate around the enzyme which will as it were be sequestered by the fatty acids and will therefore be no longer accessible to the substrate. […] II—Inhibition of the Lipoprotein Lipase:
The enzyme is incubated for a determined period of time in the presence of its inhibitor while the triolein is incubated in the presence of apoCII so as to mimic the situation encountered in vivo.
The triolein/ApoCII mixture is then incubated in the presence of the medium constituted by the enzyme±inhibitor.
For this, an oleic acid determination technique which enables the oleic acid at the end of the enzymatic reaction to be quantified, was developed.
The oleic acid is extracted from the reaction medium of the enzymatic determination with ethanol, and then injected onto a commercial column from DBJW scientific: reference DB FFAP, 15 m in length, 0.32 mm internal diameter, 0.25 μm thickness in splitless mode. The temperatures of the injector and of the detector are 280° C. The programming in temperature starts at 50° C. for 1 minute and then rises by 40° C./minute up to 200° C. and then by 15° C. par minute up to 250° C. for 3 minutes.

Q: For O=P([O-])([O-])OP(=O)([O-])[O-].[Na+].[Na+].[Na+].[Na+] [Sodium pyrophosphate], which “Inhibition (%) Pure product diluted to a 1/100th” value ([1]; diluted 1/100th) is on record?
A: 13% ± 12.5

Q: What about the “Inhibition (%) Pure product diluted to a 1/10,000th” value ([1]; diluted 1/10,000th) of the same molecule?
A: 0.4% ± 8.3

Q: And the “Inhibition (%) Pure product” value [1]?
A: 15% ± 12.6

Q: What about the “Inhibition Pure product diluted to a 1/100th” value [2] of the same molecule?
A: 30.4% ± 4.0

Q: And the “Inhibition Pure product diluted to a 1/10,000th” value [2]?
A: 47.4% ± 10.4

Q: What about the “Inhibition Pure product” value [2] of the same molecule?
A: 35.1% ± 11.1

Q: What does the source list for O=C(OC[C@H]1O[C@@H](OC(=O)c2cc(O)c(O)c(OC(=O)c3cc(O)c(O)c(O)c3)c2)[C@H](OC(=O)c2cc(O)c(O)c(OC(=O)c3cc(O)c(O)c(O)c3)c2)[C@@H](OC(=O)c2cc(O)c(O)c(OC(=O)c3cc(O)c(O)c(O)c3)c2)[C@@H]1OC(=O)c1cc(O)c(O)c(OC(=O)c2cc(O)c(O)c(O)c2)c1)c1cc(O)c(O)c(OC(=O)c2cc(O)c(O)c(O)c2)c1 [Tannic acid]?
A: Inhibition Pure product diluted to a 1/100th ([1]; denaturing products, diluted 1/100th): 11.4% ± 10.39; Inhibition Pure product diluted to a 1/10,000th ([1]; denaturing products, diluted 1/10,000th): 0% ± 9.8; Inhibition Pure product ([1]; denaturing products, pure product): 98.3% ± 12.4; Inhibition Pure product diluted to a 1/100th [2]: 44.8% ± 10.6; Inhibition Pure product diluted to a 1/10,000th [2]: 0% ± 3.8; Inhibition Pure product [2]: 100% ± 1.8

Q: With Protamine as the molecule, how does the “Inhibition (%) Pure product diluted to a 1/100th” value ([1]; diluted 1/100th) read?
A: 9.6% ± 5

Q: What about the “Inhibition (%) Pure product diluted to a 1/10,000th” value ([1]; diluted 1/10,000th) of the same molecule?
A: 8.5% ± 8.7

Q: What about the “Inhibition (%) Pure product” value [1] of the same molecule?
A: 11.2% ± 6.6

Q: Which “Inhibition (%) Pure product diluted to a 1/100th” value ([1]; diluted 1/100th) does the source give for Protamine sulphate here?
A: 2.6% ± 14.4

Q: And the “Inhibition (%) Pure product diluted to a 1/10,000th” value ([1]; diluted 1/10,000th)?
A: 11.8% ± 14.7

Q: What about the “Inhibition (%) Pure product” value [1] of the same molecule?
A: 10.1% ± 7.9

Q: What about the “Inhibition Pure product diluted to a 1/100th” value [2] of the same molecule?
A: 5.0% ± 9.6

Q: And the “Inhibition Pure product diluted to a 1/10,000th” value [2]?
A: 27.7% ± 2.9

Q: And the “Inhibition Pure product” value [2]?
A: 17.9% ± 17.5
